Experiments:
Assay in all cases: relative viability (nuclei count vs DMSO), 5 days (fraction); higher = more cells survive
IPA-3 + Crizotinib = compound: C1=CC=C2C(=C1)C=CC(=C2SSC3=C(C=CC4=CC=CC=C43)O)O [IPA-3] + C[C@@H](Oc1cc(-c2cnn(C3CCNCC3)c2)cnc1N)c1c(Cl)ccc(F)c1Cl [Crizotinib] (partner 1 µM)
Procedure, shortened: (§1)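 A single step with final 0.05% Triton X-100, 1% formaldehyde and 1 ug/ml Hoechst fixed the cells and stained nuclei 5 days after treatment. Lung cancer cell lines in 1536-well plates had been treated by pin tool the day after seeding with one drug alone or a fixed anchor-drug dose plus five library-drug doses (not always all listed) in √10 steps, and nuclei were counted on 4× images. Relative viability is the ratio of nuclei in treated wells to nuclei in vehicle wells, taken as the median of duplicate plates.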

[1] = compound: Cc1ccc(-n2nc(C(C)(C)C)cc2NC(=O)Nc2ccc(OCCN3CCOCC3)c3ccccc23)cc1 [Doramapimod] + CC(=O)c1c(C)c2cnc(Nc3ccc(N4CCNCC4)cn3)nc2n(C2CCCC2)c1=O [Palbociclib] (partner 0.5 µM)
Procedure, shortened: as §1

RAF265 + Vorinostat = compound: Cn1c(Nc2ccc(C(F)(F)F)cc2)nc2cc(Oc3ccnc(-c4ncc(C(F)(F)F)[nH]4)c3)ccc21 [RAF265] + O=C(CCCCCCC(=O)Nc1ccccc1)NO [Vorinostat] (partner 1 µM)
Procedure, shortened: as §1

| Cell Line | relative viability (IPA-3 + Crizotinib; first compound 0.2 µM) | relative viability (IPA-3 + Crizotinib; first compound 0.6325 µM) | relative viability (IPA-3 + Crizotinib; first compound 2 µM) | relative viability (IPA-3 + Crizotinib; first compound 6.325 µM) | relative viability (IPA-3 + Crizotinib; first compound 20 µM) | relative viability ([1]; first compound 0.02 µM) | relative viability ([1]; first compound 0.06325 µM) | relative viability ([1]; first compound 0.2 µM) | relative viability ([1]; first compound 0.6325 µM) | relative viability ([1]; first compound 2 µM) | relative viability (RAF265 + Vorinostat; first compound 0.01 µM) | relative viability (RAF265 + Vorinostat; first compound 0.03162 µM) | relative viability (RAF265 + Vorinostat; first compound 0.1 µM) | relative viability (RAF265 + Vorinostat; first compound 0.3162 µM) | relative viability (RAF265 + Vorinostat; first compound 1 µM) |
| --- | --- | --- | --- | --- | --- | --- | --- | --- | --- | --- | --- | --- | --- | --- | --- |
| NCI-H3122 | 0.265 | 0.283 | 0.324 | 0.269 | 0.273 | 0.18 | 0.176 | 0.191 | 0.2 | 0.213 | 1.02 | 1.01 | 0.93 | 0.965 | 0.631 |
| SK-MES-1 | 0.981 | 1 | 1.13 | 0.94 | 0.87 | 0.316 | 0.288 | 0.341 | 0.316 | 0.269 | 1.12 | 0.772 | 0.519 | 0.398 | 0.343 |
| HOP-62 | 1.3 | 0.643 | 1.01 | 1.01 | 0.922 | 0.369 | 0.483 | 0.497 | 0.524 | 0.485 | 0.664 | 0.542 | 0.56 | 0.507 | 0.332 |
| HCC-366 | 0.697 | 0.564 | 0.617 | 0.521 | 0.618 | 0.397 | 0.379 | 0.373 | 0.412 | 0.351 | 0.307 | 0.344 | 0.252 | 0.205 | 0.146 |
| NCI-H2347 | 0.834 | 0.749 | 0.724 | 0.697 | 0.708 | 0.474 | 0.466 | 0.483 | 0.383 | 0.513 | 0.611 | 0.517 | 0.564 | 0.458 | 0.344 |
| LXF-289 | 0.828 | 0.764 | 0.811 | 0.829 | 0.86 | 0.6 | 0.586 | 0.615 | 0.567 | 0.63 | 0.768 | 0.752 | 0.754 | 0.606 | 0.571 |
| LU99A | 0.635 | 0.529 | 0.615 | 0.517 | 0.533 | 0.38 | 0.365 | 0.379 | 0.426 | 0.313 | 0.515 | 0.447 | 0.402 | 0.286 | 0.261 |

From the supplement of paper PMC10307832
